According to PubChem BioAssay AID216 (DTP/NCI, 2004):
Several values for one entry are separate records, joined by “and”; a condition that tells them apart may be missing. Equal values may be shown once. Inconclusive results and toxic doses are left out.

Tested on: BDF1 mice, P288 leukemia ip, survival T/C
Assay: NCI In Vivo Anticancer Drug Screen. Data for tumor model P288 Lymphocytic Leukemia (intraperitoneal) in B6D2F1 (BDF1) mice
Conditions: higher = longer survival
Method: The antitumor activity of compounds was measured in mice bearing transplantable tumors. Survival or tumor size were measured and the results are expressed as the measurement made in the treated group (T) divided by the measurement made in the vehicle treated control group (C). The tumor model used in this assay is P288 Lymphocytic Leukemia (intraperitoneal) in B6D2F1 (BDF1) mice

[1] = endpoint: survival time, mean or median, dose: 100.0 mg/kg/injection, schedule: Q01DX010 (ip), vehicle: saline
[2] = endpoint: survival time, mean or median, dose: 2.0 mg/kg/injection, schedule: Q01DX010 (ip), vehicle: other
[3] = endpoint: survival time, mean or median, dose: 8.0 mg/kg/injection, schedule: Q01DX010 (ip), vehicle: other
[4] = endpoint: survival time, mean or median, dose: 16.0 mg/kg/injection, schedule: Q01DX010 (ip), vehicle: other
[5] = endpoint: survival time, mean or median, dose: 31.25 mg/kg/injection, schedule: Q01DX Z (ip), vehicle: carboxymethylcellulose (CMC)

For `Nc1nc(=S)c2[nH]cnc2[nH]1`, the T/C (endpoint: survival time, mean or median, dose: 0.12 mg/kg/injection, schedule: Q01DX Z (ip), vehicle: carboxymethylcellulose (CMC)) was 101 % of control, the T/C (endpoint: survival time, mean or median, dose: 0.25 mg/kg/injection, schedule: Q01DX Z (ip), vehicle: carboxymethylcellulose (CMC)) was 105 % of control and 109 % of control and the T/C (endpoint: survival time, mean or median, dose: 0.5 mg/kg/injection, schedule: Q01DX Z (ip), vehicle: carboxymethylcellulose (CMC)) was 111 % of control and 122 % of control and 86 % of control. The T/C (endpoint: survival time, mean or median, dose: 1.0 mg/kg/injection, schedule: Q01DX Z (ip), vehicle: carboxymethylcellulose (CMC)) was 107 % of control and 100 % of control, the T/C (endpoint: survival time, mean or median, dose: 2.0 mg/kg/injection, schedule: Q01DX Z (ip), vehicle: carboxymethylcellulose (CMC)) was 103 % of control and 117 % of control and 98 % of control and the T/C (endpoint: survival time, mean or median, dose: 2.5 mg/kg/injection, schedule: Q01DX010 (ip), vehicle: other) was 115 % of control. The T/C (endpoint: survival time, mean or median, dose: 4.0 mg/kg/injection, schedule: Q01DX Z (ip), vehicle: carboxymethylcellulose (CMC)) was 94 % of control, the T/C (endpoint: survival time, mean or median, dose: 5.0 mg/kg/injection, schedule: Q01DX010 (ip), vehicle: other) was 110 % of control and 94 % of control and the T/C (endpoint: survival time, mean or median, dose: 10.0 mg/kg/injection, schedule: Q01DX010 (ip), vehicle: other) was 94 % of control.
With `Nc1nc2n[nH]nc2c(=O)[nH]1` the T/C (endpoint: survival time, mean or median, dose: 12.5 mg/kg/injection, schedule: Q01DX Z (ip), vehicle: other) was 111 % of control, the T/C (endpoint: survival time, mean or median, dose: 25.0 mg/kg/injection, schedule: Q01DX010 (ip), vehicle: alkali diluted with saline) was 100 % of control and the T/C (endpoint: survival time, mean or median, dose: 100.0 mg/kg/injection, schedule: Q01DX Z (ip), vehicle: other) was 152 % of control and 183 % of control. For the same compound, the T/C (endpoint: survival time, mean or median, dose: 200.0 mg/kg/injection, schedule: Q01DX Z (ip), vehicle: other) was 195 % of control.
In the case of `COS(C)(=O)=O`, the T/C (endpoint: survival time, mean or median, dose: 12.5 mg/kg/injection, schedule: Q01DX010 (ip), vehicle: saline) is reported as 100 % of control, the T/C (endpoint: survival time, mean or median, dose: 12.5 mg/kg/injection, schedule: Q01DX Z (ip), vehicle: water) is reported as 109 % of control and the T/C (endpoint: survival time, mean or median, dose: 25.0 mg/kg/injection, schedule: Q01DX010 (ip), vehicle: saline) is reported as 100 % of control. For the same compound, the T/C (endpoint: survival time, mean or median, dose: 25.0 mg/kg/injection, schedule: Q01DX Z (ip), vehicle: water) was 103 % of control, the T/C (endpoint: survival time, mean or median, dose: 50.0 mg/kg/injection, schedule: Q01DX010 (ip), vehicle: saline) was 87 % of control and the T/C [1] was 106 % of control. The T/C (endpoint: survival time, mean or median, dose: 100.0 mg/kg/injection, schedule: Q01DX Z (ip), vehicle: water) was 97 % of control.
In the case of `CN1c2c(nc(N)[nH]c2=O)NCC1CCNc1ccc(C(=O)NC(CCC(=O)O)C(=O)O)cc1` (stereo not given), the T/C (endpoint: median survival time, dose: 6.25 mg/kg/injection, schedule: Q01DX009 (ip), vehicle: other) is reported as 104 % of control, the T/C (endpoint: median survival time, dose: 12.5 mg/kg/injection, schedule: Q01DX009 (ip), vehicle: other) is reported as 104 % of control and the T/C (endpoint: median survival time, dose: 25.0 mg/kg/injection, schedule: Q01DX009 (ip), vehicle: other) is reported as 108 % of control. For the same compound, the T/C (endpoint: median survival time, dose: 50.0 mg/kg/injection, schedule: Q01DX009 (ip), vehicle: other) was 116 % of control, the T/C (endpoint: median survival time, dose: 400.0 mg/kg/injection, schedule: Q01DX009 (ip), vehicle: other) was 162 % of control and the T/C (endpoint: median survival time, dose: 800.0 mg/kg/injection, schedule: Q01DX009 (ip), vehicle: other) was 100 % of control.
With `O=C(Nc1ccc(C2=NCCCN2)cc1)c1ccc(NC(=O)c2ccc(C3=NCCCN3)cc2)cc1` the T/C (endpoint: survival time, mean or median, dose: 0.24 mg/kg/injection, schedule: Q01DX Z (ip), vehicle: carboxymethylcellulose (CMC)) was 113 % of control, the T/C (endpoint: survival time, mean or median, dose: 0.49 mg/kg/injection, schedule: Q01DX Z (ip), vehicle: carboxymethylcellulose (CMC)) was 94 % of control and the T/C (endpoint: survival time, mean or median, dose: 0.98 mg/kg/injection, schedule: Q01DX Z (ip), vehicle: carboxymethylcellulose (CMC)) was 121 % of control. The T/C (endpoint: survival time, mean or median, dose: 1.0 mg/kg/injection, schedule: Q01DX010 (ip), vehicle: other) was 120 % of control, the T/C (endpoint: survival time, mean or median, dose: 1.95 mg/kg/injection, schedule: Q01DX Z (ip), vehicle: carboxymethylcellulose (CMC)) was 119 % of control and the T/C [2] was 124 % of control. For the same compound, the T/C (endpoint: survival time, mean or median, dose: 3.9 mg/kg/injection, schedule: Q01DX Z (ip), vehicle: carboxymethylcellulose (CMC)) was 183 % of control, the T/C (endpoint: survival time, mean or median, dose: 4.0 mg/kg/injection, schedule: Q01DX010 (ip), vehicle: other) was 184 % of control and 237 % of control and the T/C (endpoint: survival time, mean or median, dose: 7.8 mg/kg/injection, schedule: Q01DX Z (ip), vehicle: carboxymethylcellulose (CMC)) was 245 % of control. The T/C [3] was 237 % of control and 284 % of control, the T/C (endpoint: survival time, mean or median, dose: 15.6 mg/kg/injection, schedule: Q01DX Z (ip), vehicle: carboxymethylcellulose (CMC)) was 156 % of control and the T/C [4] was 92 % of control. The T/C [5] was 103 % of control.
With `CS(=O)(=O)OCC(O)C(O)COS(C)(=O)=O` (stereo not given) the T/C (endpoint: survival time, mean or median, dose: 94.0 mg/kg/injection, schedule: Q01DX Z (ip), vehicle: saline) was 111 % of control, the T/C [1] was 105 % of control and the T/C (endpoint: survival time, mean or median, dose: 187.5 mg/kg/injection, schedule: Q01DX Z (ip), vehicle: saline) was 105 % of control. For the same compound, the T/C (endpoint: survival time, mean or median, dose: 200.0 mg/kg/injection, schedule: Q01DX010 (ip), vehicle: saline) was 94 % of control, the T/C (endpoint: survival time, mean or median, dose: 375.0 mg/kg/injection, schedule: Q01DX Z (ip), vehicle: saline) was 117 % of control and the T/C (endpoint: survival time, mean or median, dose: 750.0 mg/kg/injection, schedule: Q01DX Z (ip), vehicle: saline) was 111 % of control. The T/C (endpoint: survival time, mean or median, dose: 800.0 mg/kg/injection, schedule: Q01DX010 (ip), vehicle: saline) was 105 % of control.
For `O=C(Nc1ccc(C2=NCCN2)cc1)c1ccc(C(=O)Nc2ccc(C3=NCCN3)cc2)c(Cl)c1`, the T/C [2] was 108 % of control and 120 % of control, the T/C (endpoint: survival time, mean or median, dose: 7.5 mg/kg/injection, schedule: Q01DX Z (ip), vehicle: water) was 107 % of control and the T/C [3] was 160 % of control and 183 % of control. For the same compound, the T/C [4] was 232 % of control and 262 % of control, the T/C (endpoint: survival time, mean or median, dose: 30.0 mg/kg/injection, schedule: Q01DX Z (ip), vehicle: water) was 154 % of control and the T/C (endpoint: survival time, mean or median, dose: 32.0 mg/kg/injection, schedule: Q01DX010 (ip), vehicle: other) was 120 % of control and 296 % of control.
For `CCN(CC)C(=S)S`, the T/C (endpoint: survival time, mean or median, dose: 125.0 mg/kg/injection, schedule: Q01DX Z (ip), vehicle: other) was 97 % of control, the T/C (endpoint: survival time, mean or median, dose: 250.0 mg/kg/injection, schedule: Q01DX Z (ip), vehicle: other) was 112 % of control and the T/C (endpoint: survival time, mean or median, dose: 500.0 mg/kg/injection, schedule: Q01DX Z (ip), vehicle: other) was 104 % of control. For the same compound, the T/C (endpoint: survival time, mean or median, dose: 1000.0 mg/kg/injection, schedule: Q01DX Z (ip), vehicle: other) was 104 % of control.
In the case of `C1CN1c1nc(N2CC2)nc(N2CC2)n1`, the T/C (endpoint: survival time, mean or median, dose: 0.13 mg/kg/injection, schedule: Q01DX010 (ip), vehicle: saline) is reported as 88 % of control, the T/C (endpoint: survival time, mean or median, dose: 0.25 mg/kg/injection, schedule: Q01DX010 (ip), vehicle: saline) is reported as 105 % of control and 88 % of control and the T/C (endpoint: survival time, mean or median, dose: 0.5 mg/kg/injection, schedule: Q01DX010 (ip), vehicle: saline) is reported as 111 % of control and 95 % of control. For the same compound, the T/C (endpoint: survival time, mean or median, dose: 1.0 mg/kg/injection, schedule: Q01DX010 (ip), vehicle: saline) was 94 % of control.
`Nc1c(Br)cc2c(c1Br)Cc1cc([N+](=O)[O-])ccc1-2` was tested, and the T/C (endpoint: survival time, mean or median, dose: 15.6 mg/kg/injection, schedule: Q01DX010 (ip), vehicle: saline) was 122 % of control, the T/C (endpoint: survival time, mean or median, dose: 31.3 mg/kg/injection, schedule: Q01DX010 (ip), vehicle: saline) was 116 % of control and the T/C (endpoint: survival time, mean or median, dose: 62.5 mg/kg/injection, schedule: Q01DX010 (ip), vehicle: saline) was 111 % of control and 116 % of control. The T/C (endpoint: survival time, mean or median, dose: 125.0 mg/kg/injection, schedule: Q01DX010 (ip), vehicle: saline) was 116 % of control and 94 % of control and the T/C (endpoint: survival time, mean or median, dose: 500.0 mg/kg/injection, schedule: Q01DX010 (ip), vehicle: saline) was 88 % of control.
With `Clc1ncnc2nc[nH]c12` the T/C (endpoint: survival time, mean or median, dose: 7.5 mg/kg/injection, schedule: Q01DX010 (ip), vehicle: saline) was 88 % of control, the T/C (endpoint: survival time, mean or median, dose: 30.0 mg/kg/injection, schedule: Q01DX010 (ip), vehicle: saline) was 94 % of control and the T/C [5] was 86 % of control and 95 % of control. The T/C (endpoint: survival time, mean or median, dose: 62.5 mg/kg/injection, schedule: Q01DX Z (ip), vehicle: carboxymethylcellulose (CMC)) was 101 % of control and 102 % of control and 105 % of control, the T/C (endpoint: survival time, mean or median, dose: 125.0 mg/kg/injection, schedule: Q01DX Z (ip), vehicle: carboxymethylcellulose (CMC)) was 112 % of control and 114 % of control and 97 % of control and the T/C (endpoint: survival time, mean or median, dose: 250.0 mg/kg/injection, schedule: Q01DX Z (ip), vehicle: carboxymethylcellulose (CMC)) was 106 % of control (2×) and 110 % of control.
With `O=C(Nc1ccc(NC(=O)Nc2cccc(C3=NCCN3)c2)cc1)Nc1cccc(C2=NCCN2)c1` the T/C (endpoint: survival time, mean or median, dose: 60.0 mg/kg/injection, schedule: Q01DX010 (ip), vehicle: saline) was 163 % of control and 168 % of control, the T/C (endpoint: survival time, mean or median, dose: 120.0 mg/kg/injection, schedule: Q01DX010 (ip), vehicle: saline) was 173 % of control and 210 % of control and the T/C (endpoint: survival time, mean or median, dose: 240.0 mg/kg/injection, schedule: Q01DX010 (ip), vehicle: saline) was 221 % of control. For the same compound, the T/C (endpoint: survival time, mean or median, dose: 480.0 mg/kg/injection, schedule: Q01DX010 (ip), vehicle: saline) was 152 % of control.
